{"source": "paper PMC9578396", "about": "“Intrinsic Antibacterial Activity of Xeruborbactam In Vitro: Assessing Spectrum and Mode of Action” (Antimicrobial Agents and Chemotherapy, 2022)", "key": {"PBP1a [1]": {"biological_target": "T1, PBP1a (Pseudomonas aeruginosa, UniProt Q07806)", "T1 construct": "endogenous in cells", "T1 sequence (Q07806 whole entry)": "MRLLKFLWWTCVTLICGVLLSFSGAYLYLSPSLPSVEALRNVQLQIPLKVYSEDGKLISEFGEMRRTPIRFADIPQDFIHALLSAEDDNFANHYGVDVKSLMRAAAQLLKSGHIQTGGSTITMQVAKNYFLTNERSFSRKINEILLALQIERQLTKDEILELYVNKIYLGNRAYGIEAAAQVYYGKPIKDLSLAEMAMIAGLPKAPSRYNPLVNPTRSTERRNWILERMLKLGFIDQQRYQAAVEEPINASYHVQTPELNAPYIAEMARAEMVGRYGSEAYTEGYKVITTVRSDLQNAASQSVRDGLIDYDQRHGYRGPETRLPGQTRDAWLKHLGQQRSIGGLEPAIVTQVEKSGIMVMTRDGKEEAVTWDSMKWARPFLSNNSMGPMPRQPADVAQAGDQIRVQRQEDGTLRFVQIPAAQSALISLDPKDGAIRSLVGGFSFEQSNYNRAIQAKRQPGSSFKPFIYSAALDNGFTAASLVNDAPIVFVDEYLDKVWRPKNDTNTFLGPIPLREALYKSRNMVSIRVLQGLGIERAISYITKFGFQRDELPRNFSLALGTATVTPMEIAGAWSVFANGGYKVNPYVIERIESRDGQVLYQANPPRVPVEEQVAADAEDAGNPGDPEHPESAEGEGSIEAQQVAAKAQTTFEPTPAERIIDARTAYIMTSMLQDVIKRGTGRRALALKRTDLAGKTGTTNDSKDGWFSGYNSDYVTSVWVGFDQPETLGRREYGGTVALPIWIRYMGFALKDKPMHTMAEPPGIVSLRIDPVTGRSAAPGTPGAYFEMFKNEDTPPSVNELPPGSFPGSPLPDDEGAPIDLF", "experiment": "Gel-based Bocillin FL competition PBP binding assay", "settings": "P. aeruginosa PAM3034 membranes; Bocillin FL step 0°C for xeruborbactam, 30°C for beta-lactams; read-out: Relative binding IC50, PBP1a", "procedure": "(§1) Ten milliliters of overnight bacterial culture was inoculated in 1 L of LB medium and grown to an OD600 of 0.7 to 0.9. The cell pellet was washed once with 50 mL of solution containing 100 mM Na-phosphate at pH 7.0 and 100 mM NaCl and resuspended in 10 mL of the same buffer with one tablet of EDTA-free mini-protease inhibitor and 10 mg of lysozyme. Cell suspensions were incubated for 45 min at 37°C, and then 200 μL of DNase I was added along with MgSO4 (to a final concentration of 10 mM), followed by three cycles of freeze-thawing (10 min and 20 min, respectively). Four cycles of sonication at maximum power were performed next, each cycle lasting for 30 s with 1 min on ice between cycles. The cell suspension was centrifuged at 12,000 × g for 10 min at 4°C. The supernatant was collected and centrifuged at 100,000 × g for 45 min at 4°C. The pellet was washed three times with 10 mL of 100 mM Na-phosphate, pH 7.0, by resuspension and subsequent centrifugation at 100,000 × g for 10 min at 4°C. The pellet was finally resuspended in 1.5 mL of 100 mM Na-phosphate, pH 7.0, and passed several times through a Dounce homogenizer (tight pestle). Membrane preparations were aliquoted and kept at −80°C.\n(§2) Five microliters of total bacterial membrane preparation was mixed with 5 μL of a test compound at a desired concentration in 100 mM Na-phosphate buffer, pH 7.0. Incubation of bacterial membrane preparations with control beta-lactams was performed for 10 min at 30°C; xeruborbactam was incubated with membrane preparations for 1 h at 30°C. Five microliters of 150 μM Bocillin FL fluorescent probe (Thermo Fisher Scientific) was added, and the reaction mixture was incubated for an additional 10 min at 30°C in the case of beta-lactams or for 20 min on ice (0°C) in the case of xeruborbactam. […] At the end of the incubation step, 15 μL of 2× SDS sample loading buffer was added, and the reaction mixture was incubated for 5 min at 95°C. Twenty-five microliters of the reaction mixture was then loaded on an 8% SDS Tris-glycine gel (Thermo Fisher Scientific). At the end of the run, the gel was briefly rinsed with water and fixed in 10% acetic acid, 40% methanol for 20 min. After an additional wash in water for 30 min, the gel was scanned on a Typhoon Trio+ Imager using a blue laser filter (excitation, 488 nm, and emission, 520 nm). Densitometry of the gel images was performed using ImageQuant software (Molecular Dynamics). IC50 values were calculated with Prism software (GraphPad)."}, "PBP2 [2]": {"test_system": "PBP2", "parameters": "method as in PMID 18250190", "settings": "value in parentheses; E. coli MC1400; cited from earlier work"}, "PBP1a [3]": {"biological_target": "PBP1a (Klebsiella pneumoniae, UniProt A0A0H3GZF1)", "sequence (A0A0H3GZF1 entry or part of it)": "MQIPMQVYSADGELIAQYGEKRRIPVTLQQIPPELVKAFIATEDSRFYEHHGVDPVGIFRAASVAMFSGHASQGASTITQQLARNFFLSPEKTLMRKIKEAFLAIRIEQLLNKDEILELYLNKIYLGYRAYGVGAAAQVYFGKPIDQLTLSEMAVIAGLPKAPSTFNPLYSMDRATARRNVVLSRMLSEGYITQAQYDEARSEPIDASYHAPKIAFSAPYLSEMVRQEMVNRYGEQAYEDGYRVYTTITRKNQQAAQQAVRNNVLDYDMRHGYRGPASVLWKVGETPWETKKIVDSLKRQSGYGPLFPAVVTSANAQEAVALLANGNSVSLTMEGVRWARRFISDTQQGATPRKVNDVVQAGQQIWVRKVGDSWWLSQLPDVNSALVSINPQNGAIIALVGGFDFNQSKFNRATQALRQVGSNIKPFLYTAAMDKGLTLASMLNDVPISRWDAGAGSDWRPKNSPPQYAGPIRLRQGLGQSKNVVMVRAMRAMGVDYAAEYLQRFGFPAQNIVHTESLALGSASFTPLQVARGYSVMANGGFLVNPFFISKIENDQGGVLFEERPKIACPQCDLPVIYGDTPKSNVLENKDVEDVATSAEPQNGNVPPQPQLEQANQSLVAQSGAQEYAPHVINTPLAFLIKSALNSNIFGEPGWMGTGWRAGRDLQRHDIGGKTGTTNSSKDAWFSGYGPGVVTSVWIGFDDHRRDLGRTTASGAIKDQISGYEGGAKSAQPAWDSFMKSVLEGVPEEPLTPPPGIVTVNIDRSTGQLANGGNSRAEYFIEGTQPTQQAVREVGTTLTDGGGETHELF", "parameters": "method as in PMID 29712652", "settings": "read-out: IC50, PBP1a; value in parentheses; K. pneumoniae ATCC 43816; cited from earlier work"}, "Proteus mirabilis": {"test_system": "Proteus mirabilis", "experiment": "Broth microdilution MIC (CLSI), Proteus mirabilis", "format": "cell-based", "settings": "23 isolates", "text": "(§3) Bacterial isolates were subjected to broth microdilution susceptibility testing, performed according to Clinical and Laboratory Standards Institute (CLSI) methods ([46]), using panels prepared in-house. Meropenem was purchased from Sandoz, and all other antibiotics were from Sigma-Aldrich. Xeruborbactam was synthesized at Qpex Biopharma, San Diego, CA. Avibactam was purchased from eNovation Chemicals LLC, Bridgewater, NJ, USA; zidebactam was from MedKoo Biosciences, Inc., Morrisville, NC, and nacubactam was from Advanced ChemBlocks, Hayward, CA. Durlobactam was synthesized at Acme Bioscience, Palo Alto, CA, USA."}, "Other Enterobacterales": {"test_system": "Other Enterobacterales", "experiment": "Broth microdilution MIC (CLSI), other Enterobacterales", "format": "cell-based", "settings": "18 isolates", "text": "as §3"}, "[4]": {"test_system": "strain PAM1154 of P. aeruginosa", "experiment": "Minimal bactericidal concentration (MBC), P. aeruginosa", "format": "cell-based", "settings": "Pseudomonas aeruginosa"}, "[5]": {"test_system": "strain AB1007 of A. baumannii", "experiment": "Minimal bactericidal concentration (MBC), A. baumannii", "format": "cell-based", "settings": "Acinetobacter baumannii"}, "PBP2 [6]": {"biological_target": "T2, PBP2 (Pseudomonas aeruginosa, UniProt Q9X6V3)", "T2 construct": "endogenous in cells", "T2 sequence (Q9X6V3 1-646)": "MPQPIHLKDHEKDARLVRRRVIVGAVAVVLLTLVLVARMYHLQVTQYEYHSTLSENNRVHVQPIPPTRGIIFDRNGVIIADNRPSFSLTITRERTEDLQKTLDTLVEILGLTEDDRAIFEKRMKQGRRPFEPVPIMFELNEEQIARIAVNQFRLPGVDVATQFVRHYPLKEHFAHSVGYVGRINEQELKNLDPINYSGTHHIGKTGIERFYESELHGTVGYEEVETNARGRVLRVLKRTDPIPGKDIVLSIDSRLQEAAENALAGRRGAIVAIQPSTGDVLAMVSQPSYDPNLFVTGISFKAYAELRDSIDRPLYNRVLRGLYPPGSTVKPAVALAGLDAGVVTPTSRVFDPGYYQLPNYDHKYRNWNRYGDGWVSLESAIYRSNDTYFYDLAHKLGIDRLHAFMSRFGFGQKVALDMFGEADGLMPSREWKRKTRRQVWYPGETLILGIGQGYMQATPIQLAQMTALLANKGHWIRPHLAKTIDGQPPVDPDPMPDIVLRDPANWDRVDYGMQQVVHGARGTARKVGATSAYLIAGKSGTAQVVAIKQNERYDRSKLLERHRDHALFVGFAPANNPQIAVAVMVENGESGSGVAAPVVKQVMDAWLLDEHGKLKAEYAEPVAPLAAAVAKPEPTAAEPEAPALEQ", "experiment": "Gel-based Bocillin FL competition PBP binding assay", "settings": "P. aeruginosa PAM3034 membranes; Bocillin FL step 0°C for xeruborbactam, 30°C for beta-lactams; read-out: Relative binding IC50, PBP2", "procedure": "as §1, §2"}, "PBP3": {"biological_target": "T3, PBP3 (Pseudomonas aeruginosa, UniProt G3XD46)", "T3 construct": "endogenous in cells", "T3 sequence (G3XD46 whole entry)": "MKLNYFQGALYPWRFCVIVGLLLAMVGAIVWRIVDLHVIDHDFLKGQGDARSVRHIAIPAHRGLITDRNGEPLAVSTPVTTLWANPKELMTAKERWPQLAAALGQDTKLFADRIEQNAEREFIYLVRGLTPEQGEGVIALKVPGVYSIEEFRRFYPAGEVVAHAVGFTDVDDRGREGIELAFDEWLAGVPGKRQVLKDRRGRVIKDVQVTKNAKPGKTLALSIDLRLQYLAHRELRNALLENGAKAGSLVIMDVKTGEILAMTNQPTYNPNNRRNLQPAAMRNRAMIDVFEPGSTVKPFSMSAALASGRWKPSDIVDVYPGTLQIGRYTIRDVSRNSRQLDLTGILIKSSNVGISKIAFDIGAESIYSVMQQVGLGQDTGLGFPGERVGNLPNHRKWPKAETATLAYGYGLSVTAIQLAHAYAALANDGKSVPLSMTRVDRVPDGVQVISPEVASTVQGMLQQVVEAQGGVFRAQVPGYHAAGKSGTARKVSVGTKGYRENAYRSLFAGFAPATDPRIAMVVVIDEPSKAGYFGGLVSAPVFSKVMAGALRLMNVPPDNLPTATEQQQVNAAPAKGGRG", "experiment": "Gel-based Bocillin FL competition PBP binding assay", "settings": "P. aeruginosa PAM3034 membranes; Bocillin FL step 0°C for xeruborbactam, 30°C for beta-lactams; read-out: Relative binding IC50, PBP3", "procedure": "as §1, §2"}, "[7]": {"test_system": "A. baumannii strain AB1007", "settings": "xeruborbactam at ≥2× MIC, 48 h at 37°C", "procedure": "(§4) Beta-lactamase-negative strains of E. coli (strain ECM5497), A. baumannii (strain AB1007), and K. pneumoniae (strain KPM1026a) were used in resistance development studies. […] […] Single colonies from xeruborbactam-containing plates were grown twice on a nonselective medium before their antimicrobial-resistance levels were assessed. For K. pneumoniae KPM1026a, several independent cultures were used in resistance studies."}, "E. coli strain ECM5497": {"test_system": "E. coli strain ECM5497", "settings": "xeruborbactam at ≥2× MIC, 48 h at 37°C", "procedure": "as §4"}, "[8]": {"test_system": "K. pneumoniae strain KPM1026a", "experiment": "Fluorescence microscopy, cellular morphology", "format": "cell-based, Klebsiella pneumoniae", "settings": "treated at 1× and 2× MIC, 1 to 2 h, 30°C", "procedure": "Single colonies of K. pneumoniae strain KPM1026a, A. baumannii strain ATCC 17978, and P. aeruginosa strain PAM1154 were picked from LB agar plates, inoculated in cation-adjusted Mueller-Hinton broth (CA-MHB), and incubated overnight at 30°C with rolling. Overnight cultures were diluted into fresh CA-MHB and incubated at 30°C, with rolling, until they reached an OD600 of ≈0.12 to 0.15 (equivalent to ~2 × 10^8 CFU/mL). Samples were then treated with compounds and incubated at 30°C, with rolling. After 1 or 2 h of treatment, cells were collected and stained with a dye mix containing FM4-64 (1 μg/mL), DAPI (4′,6-diamidino-2-phenylindole) (2 μg/mL), and SYTOX green (0.5 μM) (Molecular Probes, Invitrogen, or Thermo Fisher Scientific). Cells were transferred onto an agarose pad containing 1.2% agarose and 20% LB medium for microscopy. Microscopy was performed as previously described ([34])."}}}
{"smiles": "C[C@@H](O)[C@H]1C(=O)N2C(C(=O)O)=C(S[C@@H]3CN[C@H](C(=O)N(C)C)C3)[C@H](C)[C@H]12", "note": "[Meropenem]", "values": [{"measurement": "IC50", "setting": "PBP1a [1]", "value": 0.17, "unit": "µM"}, {"measurement": "IC50", "setting": "PBP2 [2]", "value": 0.003, "unit": "µM"}, {"measurement": "IC50", "setting": "PBP1a [3]", "value": 5.2, "unit": "µM"}]}
{"smiles": "O=C(O)c1c(F)ccc2c1OB(O)[C@@H]1C[C@H]21", "note": "[Xeruborbactam]", "values": [{"measurement": "MIC50", "setting": "Proteus mirabilis", "value": 16, "unit": "µg/mL"}, {"measurement": "MIC90", "setting": "Proteus mirabilis", "value": 32, "unit": "µg/mL"}, {"measurement": "MIC50", "setting": "Other Enterobacterales", "value": 16, "unit": "µg/mL"}, {"measurement": "MIC90", "setting": "Other Enterobacterales", "value": 32, "unit": "µg/mL"}, {"measurement": "MIC range", "setting": "Other Enterobacterales", "value": "8 to 64", "unit": "µg/mL"}, {"measurement": "MBC", "setting": "[4]", "value": 32, "unit": "µg/mL"}, {"measurement": "MBC", "setting": "[5]", "value": 16, "unit": "µg/mL"}, {"measurement": "IC50", "setting": "PBP2 [6]", "value": "370 ± 120", "unit": "µM"}, {"measurement": "IC50", "setting": "PBP3", "value": "510 ± 120", "unit": "µM"}, {"measurement": "frequency of resistance (FOR)", "setting": "[7]", "value": "< 2 × 10^−9"}, {"measurement": "frequency of resistance (FOR)", "setting": "E. coli strain ECM5497", "value": "< 2 × 10^−9"}, {"measurement": "cellular morphology", "setting": "[8]", "value": "increased cell length relative to that of the untreated controls and bulges that developed at midcell"}]}
